Test results as given in PubChem BioAssay AID2060896 (Molecular Pharmacology Branch, DTP, NCI, 2025).

Test system: 941728-121-R-J1-PDC complex spheroid viability
Assay: Anticancer human tumor 941728-121-R-J1-PDC patient-derived lung adenocarcinoma cell line growth inhibition [RAS]
Conditions: for IC50: curve of first compound; for viability, T/C: stronger effect = lower value
Outline: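 Multi-cell-type spheroids: tumor cells plus HUVEC endothelial cells and mesenchymal stem cells. RAS-pathway inhibitors were combined with targeted agents, each dosed in half-log steps down from clinical Cmax, or from 10 microM when Cmax was unknown.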
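Note: spheroids exposed to compounds for 7 days before readout.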
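Throughout, for viability, T/C: 100% = DMSO vehicle control viability.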

Compound CC1(C)CCC(Nc2ncc(C(F)(F)F)c(-c3c[nH]c4c(P(C)(C)=O)c(C#N)ccc34)n2)CN1 (configuration not stated) + CCn1c(-c2cccnc2C(C)OC)c2c3cc(ccc31)N1CCOC(CC(NC(=O)C(C(C)C)N(C)C(=O)C3(F)CCN(C(=O)C#CC(C)(C)N(C)C)CC3)C(=O)N3CCCC(N3)C(=O)OCC(C)(C)C2)C1 has an IC50 (second compound 0.000949 µM) of less than 0.949 nM, an IC50 (second compound 0.003 µM) of less than 0.949 nM and an IC50 (second compound 0.00949 µM) of less than 0.949 nM. It also gave an IC50 (second compound 0.03 µM) of less than 0.949 nM, an IC50 (second compound 0.0949 µM) of less than 0.949 nM and an IC50 (second compound 0.3 µM) of less than 0.949 nM. The viability, T/C (second compound 0.000949 µM, first compound 0.000949 µM) was 21%, the viability, T/C (second compound 0.000949 µM, first compound 0.003 µM) was 20.7% and the viability, T/C (second compound 0.000949 µM, first compound 0.00949 µM) was 16.3%. The viability, T/C (second compound 0.000949 µM, first compound 0.03 µM) was 23.5%, the viability, T/C (second compound 0.000949 µM, first compound 0.0949 µM) was 24.3% and the viability, T/C (second compound 0.000949 µM, first compound 0.3 µM) was 15.7%. For the same compound, the viability, T/C (second compound 0.003 µM, first compound 0.000949 µM) was 25.2%, the viability, T/C (second compound 0.003 µM, first compound 0.003 µM) was 19.5% and the viability, T/C (second compound 0.003 µM, first compound 0.00949 µM) was 18.2%. For the same compound, the viability, T/C (second compound 0.003 µM, first compound 0.03 µM) was 22.9%, the viability, T/C (second compound 0.003 µM, first compound 0.0949 µM) was 22.2% and the viability, T/C (second compound 0.003 µM, first compound 0.3 µM) was 16.6%. The viability, T/C (second compound 0.00949 µM, first compound 0.000949 µM) was 21.4%, the viability, T/C (second compound 0.00949 µM, first compound 0.003 µM) was 20.2% and the viability, T/C (second compound 0.00949 µM, first compound 0.00949 µM) was 21.2%. The viability, T/C (second compound 0.00949 µM, first compound 0.03 µM) was 19.6%, the viability, T/C (second compound 0.00949 µM, first compound 0.0949 µM) was 21.2% and the viability, T/C (second compound 0.00949 µM, first compound 0.3 µM) was 21.9%. For the same compound, the viability, T/C (second compound 0.03 µM, first compound 0.000949 µM) was 20.4%, the viability, T/C (second compound 0.03 µM, first compound 0.003 µM) was 17% and the viability, T/C (second compound 0.03 µM, first compound 0.00949 µM) was 22.8%. It also gave a viability, T/C (second compound 0.03 µM, first compound 0.03 µM) of 21.7%, a viability, T/C (second compound 0.03 µM, first compound 0.0949 µM) of 19% and a viability, T/C (second compound 0.03 µM, first compound 0.3 µM) of 21.6%. The viability, T/C (second compound 0.0949 µM, first compound 0.000949 µM) was 19.5%, the viability, T/C (second compound 0.0949 µM, first compound 0.003 µM) was 20.3% and the viability, T/C (second compound 0.0949 µM, first compound 0.00949 µM) was 21%. It also gave a viability, T/C (second compound 0.0949 µM, first compound 0.03 µM) of 23.4%, a viability, T/C (second compound 0.0949 µM, first compound 0.0949 µM) of 19% and a viability, T/C (second compound 0.0949 µM, first compound 0.3 µM) of 23.7%. It also gave a viability, T/C (second compound 0.3 µM, first compound 0.000949 µM) of 20.7%, a viability, T/C (second compound 0.3 µM, first compound 0.003 µM) of 19.9% and a viability, T/C (second compound 0.3 µM, first compound 0.00949 µM) of 25.6%. The viability, T/C (second compound 0.3 µM, first compound 0.03 µM) was 20.9%, the viability, T/C (second compound 0.3 µM, first compound 0.0949 µM) was 21.4% and the viability, T/C (second compound 0.3 µM, first compound 0.3 µM) was 25.6%.
